From patent US9012492B2, “Apocynin-lipoic acid conjugates and uses thereof” (priority 2011, dated 2015)
Like-named read-outs stand apart in the source and are kept apart here.

Key:
[1] = system: Sprague-Dawley rats; test: Blood pressure, heart rate and baroreceptor reflex sensitivity; type: in vivo, rat
Procedure: Sprague-Dawley rats were used to study the effects of (Ia) on reperfusion injury following stroke in a rodent model. The rats were anesthetized, and injected with (la) (0.01-0.1 mg/kg). After 30 minutes, occlusion of the middle cerebral artery (MCA) was performed.
All experiments were conducted on male Sprague-Dawley rats (total of 229 rats; 250-350 g; Charles River, Montreal, PQ, Canada). For all animals, food and tap water were available ad libitum. Rats were anesthetized with sodium thiobutabarbital (Inactin; Sigma-Aldrich; St. Louis, Mo.; 100 mg/kg ip), which provided a stable plane of anesthesia for the full duration of the experimental time period. To monitor blood pressure and heart rate, a polyethylene catheter (PE-50; Clay Adams, Parsippany, N.J.) was inserted into the right femoral artery. For intravenous administration of drugs, a second polyethylene catheter (PE-10; Clay Adams) was inserted into the right femoral vein. Arterial blood pressure was measured with a pressure transducer (Gould P23 ID, Cleveland, Ohio) connected to a Gould model 2200S polygraph. Heart rate was determined from the pulse pressure using a Gould tachograph (Biotach). […] An endotracheal tube was inserted to facilitate breathing. Body temperature was monitored and maintained at 37±1° C. using a Physitemp feedback system (Physitemp Instruments, Clifton, N.J.).
To determine the effect of the compound of Formula (Ia) (0.1 mg/kg; 1 ml/kg; n=4) or vehicle (25% EtOH; 1 ml/kg; n=4) administration on baseline blood pressure and heart rate, continuous recordings of blood pressure and heart rate were taken prior to and following drug or vehicle administration. Further recordings of the parameters were made at 15, 30, 45, 60, 90, and 120 min following drug administration, at which time the experiment was terminated.
To determine the effect of drug administration on autonomic reflex activation, the baroreceptor reflex was evoked using a bolus intravenous injection of the α-adrenergic receptor agonist, phenylephrine-hydrochloride (Sigma-Aldrich; 0.1 ml; 2.5 μg/ml iv). The ratio of the peak change in the magnitude of the reflex bradycardia to the magnitude of the phenylephrine-induced pressor response [ΔHR (heart rate)/ΔMAP (mean arterial pressure)] was used as a measure of baroreceptor reflex sensitivity (BRS). BRS was tested at 10 min and immediately prior to the compound of Formula (Ia) (0.1 mg/kg; 1 ml/kg; n=3) or vehicle (25% EtOH; 1 ml/kg; n=3) administration. BRS was then tested 15 and 30 min following drug administration (prior to MCAO), and then 5, 10, 20, and 30 min during MCAO (30 min MCAO), as well as 10, 20, 30, 60, 90, 120, 150, 210, 270, and 330 min following suture removal. The experiments were terminated after 5.5 h of reperfusion.

[2] = system: N27 neuronal cells; test: DNA fragmentation ELISA after hydrogen peroxide exposure of N27 neuronal cells; type: cell-based; details: pretreatment 100 μM
Procedure: Specifically, the effects of (Ia) on oxidative stress in N27 neuronal cells, a dopaminergic cell line were studied. […]
The cells were then lysed, and DNA fragmentation was determined by ELISA assay.

[3] = system: Sprague-Dawley rats; test: Infarct volume after permanent (6 h) middle cerebral artery occlusion; type: in vivo, rat; details: 0.1 or 1.0 mg/kg iv 30 min prior to 6 h permanent occlusion (no reperfusion)
From the text: The detailed methodology for permanent middle cerebral artery occlusion (MCAO) and transient (I/R) occlusion of the middle cerebral artery has been published previously.^46 Briefly, animals were placed in a David Kopf stereotaxic frame (Tujunga, Calif.), and the right middle cerebral artery (MCA) approached through a rostral-caudal incision of the skin and frontalis muscle at the approximate level of bregma. Blood flow through the MCA was impeded by the placement of surgical suture behind the MCA at three designated positions along the exposed vessel. […] The concentration of 0.1 mg/kg represents the optimal dose of the compound of Formula (Ia), as determined above, and 1.0 mg/kg represents a 10-fold higher concentration of the optimal dose, as the optimal dose of 0.1 mg/kg was not effective in producing neuroprotection. […] At the end of each experiment in which infarct volume was measured, animals were transcardially perfused with PBS (0.1 M; 200 ml), the brains were removed and sliced into 1-mm coronal sections using a rat brain matrix (Harvard Apparatus, Holliston, Mass.). […] Infarct volumes were calculated with the use of scanned digital images of each brain section. The infarct area for both sides of each brain section was calculated using a computer-assisted imaging system (Scion, Frederick, Md.). […]

[4] = 0.1 mg/kg iv 30 min prior to I/R, during 30 min MCAO and 5.5 h reperfusion
[5] = 0.1 mg/kg iv, 2-h continuous recording, no stroke

With `COc1cc(C(C)=O)ccc1OC(=O)CCCCC1CCSS1` (centres unmarked) [compound of Formula (Ia)] the “% Change with time” value (Un-treated plasma, 0 h) was 100.00%, the “% Change with time” value (Un-treated plasma, <1 min) was 0.00% and the “% remaining in spiked plasma sample” value (immediate extraction, no stabilizer) was about 0%. For the same compound, the “% Change with time” value (plasma + Formic acid, 0 h) was 100.00%, the “% Change with time” value (plasma + Formic acid, 10 min) was 2.00% and the “% Change with time” value (plasma + Formic acid, <1 min) was 15.00%. For the same compound, the “% Change with time” value (plasma + Sodium fluoride, 0 h) was 100.00%, the “% Change with time” value (plasma + Sodium fluoride, <1 min) was 2.00% and the “stability in biological matrix” value (rat/dog blood and plasma) was “unstable”. For the same compound, the “time stabilized in plasma” value (with combination of DV and FA) was “up to 4 h”, the “level of BRS depression during MCAO” value ([1]; 0.1 mg/kg iv 30 min prior to I/R) was “did not alter the level of BRS depression” and the “mean arterial pressure compared with pre-MCAO values” [1, 4] was “no significant differences”. The “mean heart rate compared with pre-MCAO values” [1, 4] was “no significant differences”, the “mean baroreflex sensitivity (BRS)” value ([1]; 0.1 mg/kg iv 30 min prior to I/R, within 5 min of the beginning of MCAO, mean±SE) was 0.23±0.05 bpm/mmHg and the “mean HR vs vehicle” value [1, 5] was “did not significantly alter”. The “mean arterial blood pressure vs vehicle” value [1, 5] was “did not significantly alter”, the systemic blood pressure ([1]; Example 3, 0.01-0.1 mg/kg, measured continuously over 6 hour period) was “no change in systemic blood pressure” and the “DNA fragmentation induced by hydrogen peroxide reduced by” value [2] was 73%. The DNA cell fragmentation ([2]; then hydrogen peroxide (1 mM), n = 4) was 138 ± 20 percentage of control and the “neuroprotection (infarct volume) in permanent MCAO” value [3] was “did not produce neuroprotection”.
